According to patent publication US9867869B2, “Insulin derivatives for diabetes treatment” (Massachusetts Institute of Technology, priority 2012, dated 2018):
Each block holds one compound with its values, some of them ahead of it.

Legend:
[1] = 11B NMR complexation efficiency with 4-carboxyphenylboronic acid; type: physicochemical; conditions: PBS 0.1M, 37° C.
Description: ^11B NMR spectra were recorded on a VARIAN Inova-500 spectrometer operated at 160.3 MHz with gXH switchable broadband probe installed. Samples at a concentration of 10 mM were transferred to a 5 mm Norell natural quartz NMR tube (Sigma-Aldrich). Diols and 4-carboxyphenylboronic acids were co-dissolved in phosphate buffer, 0.1 M at pH 7.4 or 8.5 and tested at 37° C.
PBA is known to recognize and bind to compounds containing 1,2- and 1,3-diol residues via the formation of a boronate ester [Wang et al., Curr. Org. Chem. 2002, 6, 1285-1317]. At aqueous conditions the boronate ester is a dynamic complex. […] In order to achieve this goal, a variety of commercially available azido substituted diols were tested for their ability to complex with PBA. […] In addition, the effect of azide group on the binding with PBA is unknown. Therefore, 4 commercially available azido diols (FIGS. 16A to 16D) were selected for testing based on their diverse structures. These compounds include azido-substituted monosaccharides (A and C), disaccharide (B), oligosaccharide (C), adenosine (D) and dopamine (E). The complexation between 4-carboxyphenylboronic acid and above materials was evaluated using ^11B NMR (FIG. 16, Table 1).
The chemical shift of boron in PBA changes when it is complexed with a diol. […] Therefore, the efficiency of complexation was estimated by monitoring the ratio of these two peaks. The effect of pH on complexation and structure of diols was studied.

[2] = 11B NMR complexing efficiency with 1TBA; type: physicochemical
Description: (§1) Direct complexation of DP3-Insulin was carried out at an aqueous/organic 2/1 v/v solution in order to enable co-solubility with hydrophobic phenylboronic acids. Equal molar quantities of 4NBA and DP3-Insulin (0.5 mM) were dissolved in 2:1 acetonitrile:PBS and then the pH was modified to 7.5 or 8.5 by adding calculated amount of concentrated NaOH solution. The obtained complex was immediately frozen in liquid nitrogen and then freeze dried to generate a white solid. Similarly, selected diols (glucose, fructose, 4EC, 2HA, Azido-6-glactose, DP1-peptide and DP3-peptide) were formulated via the direct method. In order to validate formation of a complex 4NBA-diols, 1TBA-solids obtained by the direct method, as well as, their organic/aqueous solutions (prior to freeze drying) were analyzed with ^11B NMR and via FTIR.
(§2) 1TBA and 4NBA complexing efficiency with selected diols was measured in similar conditions but at a mixture of acetonitrile/PBS 2:1, according to the direct formulation procedure. Solid PBA-DIOL complexes were evaluated in DMSO. Data were analyzed with VNMR 6.1c software. Chemical shifts are reported in parts per million (ppm) on the δ scale.

[3] = 11B NMR complexing efficiency with 4NBA; type: physicochemical; conditions: for Diol-PBA Complex %: 4NBA, pH 8.5, PBA:Diol 1:1, acetonitrile/PBS, room temperature; for degree of complexation with 4NBA: pH and equivalence not stated
Description: as §1, §2

[4] = Solubility of hydrophobic PBA as function of glucose or fructose concentration; type: physicochemical; conditions: PBS with 0-1000 mg/dL glucose or fructose, 6 hours, RT
Description: FIGS. 19A and 19B are graphs showing hydrophobic PBAs (1TBA, 4DBA and 4NBA) tested as a function of glucose (A) and fructose (B) concentrations in PBS. 10 mg of solid, hydrophobic PBA were dispersed in […] of phosphate buffer saline containing various concentrations of glucose and fructose; samples were mixed for 6 hours at room temperature, centrifuged, and aliquots were quantified against a calibration curve using reverse phase HPLC.
2.14. Solubility of Hydrophobic PBA as Function of Glucose or Fructose Concentration. 10 mg of Hydrophobic PBA (4DBA, 1TBA and 4NBA) were suspended in 40 ml vials containing phosphate buffer saline with various concentrations of glucose or fructose (0-1000 mg/dL); samples were mixed for 6 hours at RT. The solid suspension was centrifuged and aliquots were evaluated for PBA concentration. Analytical HPLC (Agilent 1200) was used to analyze samples. 2.15 Diol-Insulin Analogs PBA Affinity Test

[5] = 11B NMR stability of 4NBA:diol complexes in phosphate buffer; conditions: suspended in PBS, after 24 hr, pH 7.4, 37° C.
Description: FIG. 18 is a graph showing ^11B NMR analysis for the stability of 4NBA:diol complexes at phosphate buffer, 0.1 M, pH 7.4, 37° C. […] Solids were then separated via centrifugation and freeze dried. Samples were dissolved in DMSO-d^6 at a concentration of 10 mM and were tested at room temperature.
Complexation of DP3-Insulin with PBA was studied with ^11B NMR between 4NBA, 1TBA and selected diols (Table 2).

[6] = traditional phenylboronic acid; cited from earlier work
[7] = in vivo; cited from earlier work
[8] = pH 7.4, PBA:Diol 1:2, PBA 10 mM
[9] = pH 8.5, PBA:Diol 1:2, PBA 10 mM
[10] = pH 7.4, PBA:Diol 1:10, PBA 10 mM
[11] = pH 7.4, PBA:Diol 1:1, PBA 10 mM

- Complex % [1, 8]: 4.0%
- Complex % [1, 9]: 8.3%
Compound: [N-]=[N+]=N[C@@H]1O[C@H](CO)[C@@H](O[C@@H]2O[C@H](CO)[C@H](O)[C@H](O)[C@H]2O)[C@H](O)[C@H]1O [1-Azido-1-deoxy-beta-D-lactopyranoside]

- Diol-PBA Complex % ([2]; 1TBA, pH 8.5, PBA:Diol 1:1, acetonitrile/PBS, room temperature): 75%
- complexation ratio ([2]; pH of 7.5, PBA not specified (1TBA and 4NBA named)): 10%
- Diol-PBA Complex % [3]: 87%
Compound: CCc1ccc(O)c(O)c1 [4EC]

Compound: COc1ccc(CN(C2CCCCC2)S(=O)(=O)c2ccc(B(O)O)cc2)cc1 [4NBA, 4-(N-cyclohexyl-N-(4-methoxybenzyl)sulfamoyl)phenylboronic acid]
- solubility and glucose response range [4]: low solubility and response range within expected diabetic glucose levels

Compound: [N-]=[N+]=NC[C@@H](O)[C@H](O)[C@H](O)[C@@H](O)C=O [6-azido-6-deoxy-D-galactose]
- Complex % [1, 8]: 17.6%
- Complex % [1, 9]: 74.9%

- Complex % [1, 8]: 47.6%
- Complex % ([1]; pH 7.4, PBA:Diol 1:2, PBA 10 mM, listed as D): 48%
- Complex % [1, 9]: 61.6%
Compound: [N-]=[N+]=Nc1nc2c(N)ncnc2n1[C@@H]1O[C@H](CO)[C@@H](O)[C@H]1O [8-Azido-Adenoside]

- Complex % [1, 8]: 4.2%
- Complex % [1, 9]: 22.5%
Compound: [N-]=[N+]=N[C@H]1O[C@H](CO)[C@@H](O)[C@H](O)[C@@H]1O [Alpha-D-Mannopyranosyl azide]

- Complex % [1, 8]: 38.7%
- Complex % ([1]; pH 7.4, PBA:Diol 1:2, PBA 10 mM, listed as E): 39%
- Complex % [1, 10]: 58.1%
- Complex % [1, 9]: 100.0%
Compound: NCCc1ccc(O)c(O)c1 [Dopamine]

Compound: O=C(CO)[C@@H](O)[C@H](O)[C@H](O)CO [Frucrose]
- Complex % [1, 11]: 27.4%
- Complex % [1, 8]: 34.9%
- Complex % ([1]; pH 7.4, PBA:Diol 1:2, PBA 10 mM, listed as Fructose): 35%
- Complex % [1, 10]: 44.9%
- Complex % [1, 9]: 67.3%
- degree of complexation with 4NBA [3]: ~100%
- complexed form remaining [5]: above 50%

- Complex % [1, 11]: 4.0%
- Complex % [1, 8]: 11.0%
- Complex % ([1]; pH 7.4, PBA:Diol 1:2, PBA 10 mM, listed as glucose): 11%
- Complex % [1, 10]: 22.8%
- Complex % [1, 9]: 49.4%
- Complex % ([1]; pH 8.5, PBA:Diol 1:2, PBA 10 mM, listed as glucose): up to 50%
- degree of complexation with 4NBA [3]: 74%
- complexed form remaining [5]: less than 10%
Compound: O=C[C@H](O)[C@@H](O)[C@H](O)[C@H](O)CO [Glucose]

Compound: OB(O)c1ccccc1 [phenylboronic acid]
- pKa [6]: approximately 8.9

Compound: Lispro: fast acting insulin where B29 lysine and B28 proline have been switched
- duration of action [7]: 4 to 6 h
- onset time [7]: 5 to 15 min
- peak action [7]: 30 to 90 min

- Complex % [1, 11]: 7.5%
- Complex % ([1]; pH 8.5, PBA:Diol 1:1, PBA 10 mM): 4.0%
Compound: Maltoheptaose

- Diol-PBA Complex % [3]: 91%
Compound: azido-pentanoic-DOPA-GLY-DOPA-GLY-DOPA-GLY-NH2 [DP3-peptides]

Compound: glargine
- time basal level of insulin is maintained [7]: up to 24 hours
